Bounds are passed on as bounds.

The test system of the assay is TNF-alpha. As to the kind of experiment: Inhibition of TNF Release From Whole Blood. The following applies: human whole blood diluted 1:2 in PBS, LPS 5 ng/ml, incubated at 37° C. overnight, TNF-alpha in supernatants by ELISA. Format: cell-based. As to the method:
Human blood was freshly drawn from healthy donors and collected in vacutainers. Blood was diluted 1:2 in PBS (tissue culture, pyrogen free) in a sterile bottle and inverted to mix well. Aliquots of 0.5 ml of blood mixture were dispensed into cluster tubes in 96 well format.
Dilutions of the test compounds were prepared in RPMI by taking 100 mM DMSO stocks of the compounds and diluting 1:10 in RPMI medium in eppendorfs, to give a 10 mM stock. 1:5 serial dilutions were prepared from the stock solutions.
LPS was kept at a frozen stock (−20 degrees C.) at 1 mg/ml in PBS and then diluted to 1:10 with RPMI medium and finally diluted in the medium again 1:350. 50 μl of each test compound (first concentration was 100 uM) were added to the blood samples and then stimulated with 10 μl LPS (final concentration in the well is 5 ng/ml). The contents were gently mixed using an 8 well multi-channel pipette and incubated at 37° C. overnight. At the end of the incubation time, contents were gently mixed, then spun down at 1000×g for 5 mins at 20° C. The serum supernatants were transferred to a fresh plate without disturbing the RBCs and diluted 1:2 with the diluent RD6C.
TNF-alpha levels of supernatants were assayed using the R+D systems ELISA kit, using R+D systems protocol. Samples were read at 450 nm. The compounds shown in Table 1 were tested in the above assay. In this TNF-alpha assay, category “A” indicates an IC50 value of <500 nM. Category “B” indicates an IC50 value of 500-1000 nM. […] Category “D” indicates an IC50 value of >2000 nM.
A word on the IC50: it is the concentration that inhibits the measured activity by half. Regarding `C[C@@H](C(=O)NC(CC(=O)O)C(=O)CF)n1ccc2ccccc2c1=O` (stereo partly shown), the IC50 was in the range of 1000 to 2000 nM.
Take `CC(C)[C@@H](C(=O)NC(CC(=O)O)C(=O)CF)n1cnc2ccccc2c1=O` (stereo partly shown): the IC50 lay in the range of 500 to 1000 nM.
Consider `O=C(O)CC(NC(=O)[C@@H]1CCCCN1C(=O)OCc1cc(Cl)cc(Cl)c1)C(=O)CF` (stereo partly shown), for which the concentration for half-maximal inhibition (IC50) was 1000 to 2000 nM.
In the case of `CC[C@@H](C(=O)NC(CC(=O)O)C(=O)CF)n1ccc2ccc(Cl)cc2c1=O` (stereo partly shown) it was under 500 nM; in that of `CC[C@@H](C(=O)NC(CC(=O)O)C(=O)CF)n1cnc2ccc(Cl)cc2c1=O` (stereo partly shown), under 500 nM.
`CC[C@@H](C(=O)NC(CC(=O)O)C(=O)CF)n1cnc2ccc(Oc3ccccc3)cc2c1=O` (stereo partly shown) came in with an IC50 of 500 to 1000 nM.
Consider `CC[C@@H](C(=O)NC(CC(=O)O)C(=O)COc1c(F)c(F)cc(F)c1F)n1cnc2ccccc2c1=O` (stereo partly shown), for which the IC50 fell in the range of 1000 to 2000 nM.
`CC[C@@H](C(=O)N[C@@H](CC(=O)O)C(=O)COc1c(F)c(F)cc(F)c1F)n1cnc2ccc(Cl)cc2c1=O` came in with an IC50 of 1000 to 2000 nM.
In the case of `O=C(O)CC(NC(=O)[C@@H]1CCCCN1C(=O)OCc1cccc(Cl)c1F)C(=O)CF` (stereo partly shown) it was under 500 nM; in that of `O=C(O)CC(NC(=O)[C@@H]1CCCCN1C(=O)OCc1cc(F)ccc1F)C(=O)CF` (stereo partly shown), under 500 nM; in that of `CCC[C@@H](C(=O)NC(CC(=O)O)C(=O)CF)n1ccc2ccccc2c1=O` (stereo partly shown), under 500 nM.
To `Cc1ccccc1COC(=O)N1CCCC[C@H]1C(=O)NC(CC(=O)O)C(=O)CF` (stereo partly shown) belongs under 500 nM.
Compound `CC[C@@H](C(=O)NC(CC(=O)O)C(=O)CF)n1cnc2ccc(Oc3ccccc3Cl)cc2c1=O` (stereo partly shown) had an IC50 of over 2000 nM.
`CC[C@@H](C(=O)NC(CC(=O)O)C(=O)CF)n1cnc2ccc(Oc3cccc(Cl)c3)cc2c1=O` (stereo partly shown): the IC50 is over 2000 nM.
As to `CC[C@@H](C(=O)NC(CC(=O)O)C(=O)CF)n1cnc2ccc(Oc3cccc(F)c3)cc2c1=O` (stereo partly shown), the IC50 was over 2000 nM.
In turn, `CC[C@@H](C(=O)NC(CC(=O)O)C(=O)CF)n1cnc2ccc(Sc3cccc(F)c3)cc2c1=O` (stereo partly shown) came in with an IC50 of 1000 to 2000 nM.
`CC[C@@H](C(=O)NC(CC(=O)O)C(=O)CF)n1ccc2ccc(C(F)(F)F)cc2c1=O` (stereo partly shown): the IC50 lay within 500 to 1000 nM.
Consider `Cc1cccc(COC(=O)N2CCCC[C@H]2C(=O)NC(CC(=O)O)C(=O)CF)c1` (stereo partly shown), for which the half-maximal inhibitory concentration (IC50) was 500 to 1000 nM.
On to `CC[C@@H](C(=O)N[C@@H](CC(=O)O)C(=O)COP(=O)(c1ccccc1)c1ccccc1)n1cnc2ccccc2c1=O`, for which the IC50 was over 2000 nM.
In the case of `CC[C@@H](C(=O)NC(CC(=O)O)C(=O)COc1c(F)c(F)cc(F)c1F)n1ccc2ccc(Cl)cc2c1=O` (stereo partly shown) it was 1000 to 2000 nM; in that of `CCCSc1ccc2ncn([C@@H](CC)C(=O)NC(CC(=O)O)C(=O)CF)c(=O)c2c1` (stereo partly shown), under 500 nM.
The compound `CC[C@@H](C(=O)NC(CC(=O)O)C(=O)CF)n1ccc2ccc(-c3ccccc3)cc2c1=O` (stereo partly shown) displayed an IC50 of under 500 nM.
The compound `CC[C@@H](C(=O)N[C@@H](CC(=O)O)C(=O)COc1c(F)c(F)cc(F)c1F)n1ccc2ccccc2c1=O` yielded a concentration for half-maximal inhibition (IC50) of 500 to 1000 nM.
`O=C(O)C[C@H](NC(=O)[C@@H]1CCCCN1C(=O)OCc1cc(Cl)ccc1F)C(=O)COc1c(F)c(F)cc(F)c1F` had an IC50 of over 2000 nM.
In the case of `CC[C@H](NC(=O)c1ncc[nH]1)C(=O)NC(CC(=O)O)C(=O)CF` (stereo partly shown) it was under 500 nM; in that of `CCC[C@@H](C(=O)NC(CC(=O)O)C(=O)CF)n1cnc2ccccc2c1=O` (stereo partly shown), under 500 nM.
In the case of `CC[C@@H](C(=O)NC(CC(=O)O)C(=O)CF)n1cnc2ccccc2c1=O` (stereo partly shown), the IC50 is under 500 nM.
`CC(C)[C@H](NC(=O)OCc1ccccc1)C(=O)NC(CC(=O)O)C(=O)CF` (stereo partly shown) showed an IC50 of under 500 nM.
Take `O=C(O)CC(NC(=O)[C@@H]1CCCc2cc3ccccc3c(=O)n21)C(=O)CF` (stereo partly shown): the IC50 is under 500 nM.
The compound `CC(C)[C@H](OC(=O)Nc1ccccc1)C(=O)NC(CC(=O)O)C(=O)CF` (stereo partly shown) showed an IC50 of under 500 nM.
To `Cc1c(C(=O)N[C@H](C(=O)NC(CC(=O)O)C(=O)CF)C(C)C)n(C)c2ccccc12` (stereo partly shown) belongs under 500 nM; to `O=C(O)CC(NC(=O)[C@@H]1CCCCN1C(=O)c1sc2ccccc2c1Cl)C(=O)CF` (stereo partly shown), under 500 nM.
The compound `O=C(O)CC(NC(=O)[C@@H]1CCCc2nc3ccccc3c(=O)n21)C(=O)CF` (stereo partly shown) gave an IC50 of 500 to 1000 nM.
For `C[C@H](OC(=O)Nc1ccccc1)C(=O)NC(CC(=O)O)C(=O)CF` (stereo partly shown), the IC50 fell in the range of 500 to 1000 nM.
`O=C(O)CC(NC(=O)[C@@H]1CCCCN1C(=O)N1c2ccccc2Sc2ccc(Cl)cc21)C(=O)CF` (stereo partly shown) showed an IC50 of 500 to 1000 nM.
For `O=C(O)CC(NC(=O)[C@@H]1CCCCN1C(=O)N1c2ccccc2Sc2ccc(C(F)(F)F)cc21)C(=O)CF` (stereo partly shown), the IC50 was over 2000 nM.
`C[C@@H](C(=O)NC(CC(=O)O)C(=O)CF)n1cnc2ccccc2c1=O` (stereo partly shown) [drawing 34] had an IC50 of under 500 nM.
Compound `CC(C)[C@H](OC(=O)n1c2ccccc2c2ccccc21)C(=O)NC(CC(=O)O)C(=O)CF` (stereo partly shown) [drawing 36] had an IC50 of 1000 to 2000 nM.
In turn, `O=C(O)CC(NC(=O)[C@@H]1CCCCN1C(=O)O[C@H](c1ccccc1)C(F)(F)F)C(=O)CF` (stereo partly shown) [drawing 37] returned a 50% inhibitory concentration (IC50) of under 500 nM.
On to `O=C(O)CC(NC(=O)[C@@H]1CCCCN1C(=O)c1ccc(-c2cccc(C(F)(F)F)c2)o1)C(=O)CF` (stereo partly shown) [drawing 39], for which the IC50 was over 2000 nM.
On to `O=C(O)CC(NC(=O)[C@@H]1CCCCN1C(=O)OCc1cc(Cl)ccc1F)C(=O)CF` (stereo partly shown) [drawing 40], for which the IC50 is under 500 nM.
In the case of `O=C(O)CC(NC(=O)[C@@H]1CCCCN1C(=O)O[C@H](c1ccccc1)C(F)(F)F)C(=O)CF` (stereo partly shown) [drawing 65] it was under 500 nM; in that of `C[C@@H](C(=O)NC(CC(=O)O)C(=O)CF)n1cnc2ccccc2c1=O` (stereo partly shown) [drawing 66], under 500 nM; in that of `O=C(O)CC(NC(=O)[C@@H]1CCCCN1C(=O)OCc1cc(Cl)ccc1F)C(=O)CF` (stereo partly shown) [drawing 70], under 500 nM.
To `CC(C)[C@H](OC(=O)n1c2ccccc2c2ccccc21)C(=O)NC(CC(=O)O)C(=O)CF` (stereo partly shown) [drawing 76] belongs 1000 to 2000 nM.
`O=C(O)CC(NC(=O)[C@@H]1CCCCN1C(=O)c1ccc(-c2cccc(C(F)(F)F)c2)o1)C(=O)CF` (stereo partly shown) [drawing 78]: the IC50 is over 2000 nM.

(Values after patent US7960398B2, “Regulation of TNF-alpha” (Vertex Pharmaceuticals Incorporated, priority 2002, dated 2011).)
